# Like-named read-outs stand apart in the source and are kept apart here.
# Columns and labels:
# [1] = test system: 12 human tumor lines: U-87MG, U-373MG, SW 1088, T24, J82, HCT-15, LoVo, MCF7, T-47D, A549, A-427 and PC-3; assay: MTT cytotoxicity test, panel of the 12 human tumor lines; type: cell-based; conditions: read-out: average IC50
# Method: (§1) The influence of the compounds of formulae I and II on neoplastic cells was evaluated using the MTT calorimetric test. The principle of the MTT test is based on the mitochondrial reduction by metabolically active live cells of the yellow-colored product MTT (3-(4,5-dimethylthiazol-2-yl)-2,5-diphenyltetrazolium bromide) to a blue-colored product, formazan. The amount of formazan thus obtained is directly proportional to the amount of live cells present in the culture well(s). This amount of formazan is measured by spectrophotometry.
# (§2) The cell lines are maintained in monolayer culture at 37° C. in stoppered culture dishes containing 25 MM HEPES MEM (Minimum Essential Medium) base medium. This medium, which is suitable for growing a range of varied diploid or primary mammalian cells, is then supplemented: […]
# (§3) with a an amount of 5% FCS (Fetal Calf Serum) decomplemented at 56° C. for 1 hour, with 0.6 mg/mL of L-glutamine, with 200 IU/mL of penicillin, with […] of streptomycin, with 0.1 mg/mL of gentamicin.
# (§4) The 12 human cancer cell lines used were obtained from the American Type Culture Collection (ATCC, Rockville, Md., USA). These 12 cell lines are:
# U-373MG (code ATCC: HTB-17) and U-87MG (code ATCC: HTB-14) which are two glioblastomas, SW1088 (code ATCC: HTB-12) which is an astrocytoma, A549 (code ATCC: CCL-185) and A-427 (code ATCC: HTB-53) which are two non-small-cell lung cancers, HCT-15 (code ATCC: CCL-225) and LoVo (code ATCC: CCL-229) which are two colorectal cancers, T-47D (code ATCC: HTB-133) and MCF7 (code ATCC: HTB-22) which are two breast cancers, J82 (code ATCC: HTB-1) and T24 (code ATCC: HTB-4) which are two bladder cancers, PC-3 (code ATCC: CRL-1435) which is a prostate cancer.
# Experimentally: 100 μl of a cell suspension containing 200 000 to 50 000 (depending on the cell type used) cells/mL of culture medium are inoculated in flat-bottomed 96-well multi-well plates and are incubated at 37° C. under an atmosphere comprising 5% CO2 and 70% humidity. After incubating for 24 hours, the culture medium is replaced with 100 μl of fresh medium containing either the various test compounds at concentrations ranging from 10^−5 to 10^−10 M or the solvent used to dissolve the test products (control condition). After incubating for 72 hours under the above conditions, the culture medium is replaced with 100 μl of a yellowish solution of MTT dissolved at a rate of 1 mg/mL in RPMI 1640. The microplates are reincubated for 3 hours at 37° C. and then centrifuged for 10 minutes at 400×g. The yellowish solution of MTT is removed and the blue formazan crystals formed at the cellular level are dissolved in 100 μl of DMSO. The microplates are then agitated for 5 minutes. The intensity of the resulting blue coloration, and thus of the conversion of the yellow MTT product into blue formazan by the cells that are still alive at the end of the experiment is quantified by spectrophotometry using a DYNATECH IMMUNOASSAY SYSTEM machine at wavelengths of 570 nm and 630 nm corresponding, respectively, to the maximum absorption wavelengths of formazan and to the background noise. Software built into the spectrophotometer calculates the average optical density values and also the standard deviation (Std. Dev.) and standard error of mean (SEM) values.
# The inhibitory activity on the cell growth of the compounds of formula I and of formula II on the different tumor cell lines was compared with that of the natural product meridine (CRL 8348). All of the compounds of formula I and of formula II show significant inhibitory activity on the cell proliferation of the 12 human tumor lines: U-87MG, U-373MG, SW 1088, T24, J82, HCT-15, LoVo, MCF7, T-47D, A549, A-427 and PC-3 with an inhibitory concentration 50 (IC50) which is between 10^−6 M and 10^−10M, depending on the compounds and the tumor lines tested. By way of example, the values of the concentrations flanking the IC50 which are obtained on the various cell lines are given in table II: […]
# [2] = Determination of the maximum tolerated dose (MTD); type: in vivo; conditions: mouse, in vivo, ip; single intraperitoneal administration, survival over 14 days, B6D2F1/Jico mice
# Method: (§5) The evaluation of the maximum tolerated dose was carried out on 4- to 6-week-old B6D2F1/Jico mice. […] The value of the MTD (expressed in mg/kg) is determined from observing the survival rate of the animals over a period of 14 days after a single administration of the product under consideration. The change in the weight of the animals is also monitored over this period.
# U-373MG = assay: MTT cytotoxicity test, U-373MG; type: cell-based; conditions: Homo sapiens, U373 MG, U-373MG glioblastoma, 72 hours, read-out: concentrations flanking the IC50
# Method: as §1, §2, §3, §4
# (§6) U-373MG (code ATCC: HTB-17) and U-87MG (code ATCC: HTB-14) which are two glioblastomas, Experimentally: 100 μl of a cell suspension containing 200 000 to 50 000 (depending on the cell type used) cells/mL of culture medium are inoculated in flat-bottomed 96-well multi-well plates and are incubated at 37° C. under an atmosphere comprising 5% CO2 and 70% humidity. […] The intensity of the resulting blue coloration, and thus of the conversion of the yellow MTT product into blue formazan by the cells that are still alive at the end of the experiment is quantified by spectrophotometry using a DYNATECH IMMUNOASSAY SYSTEM machine at wavelengths of 570 nm and 630 nm corresponding, respectively, to the maximum absorption wavelengths of formazan and to the background noise. […]
# U-87MG = assay: MTT cytotoxicity test, U-87MG; type: cell-based; conditions: Homo sapiens, U-87MG glioblastoma, 72 hours, read-out: concentrations flanking the IC50
# Method: as §1, §2, §3, §4, §6
# MCF7 = assay: MTT cytotoxicity test, MCF7; type: cell-based; conditions: Homo sapiens, MCF7 breast cancer, 72 hours, read-out: concentrations flanking the IC50
# Method: as §1, §2, §3
# (§7) The 12 human cancer cell lines used were obtained from the American Type Culture Collection (ATCC, Rockville, Md., USA). These 12 cell lines are: […]
# B6D2F1/Jico mice = assay: Determination of the maximum tolerated dose (MTD); type: in vivo; conditions: single intraperitoneal administration, survival over 14 days
# Method: as §5
# A549 = assay: MTT cytotoxicity test, A549; type: cell-based; conditions: Homo sapiens, A549 non-small-cell lung cancer, 72 hours, read-out: concentrations flanking the IC50
# Method: as §1, §2, §3, §7
Compound,IC50 ([1]; Homo sapiens),MTD at 14 days [2],IC50 (U-373MG),IC50 (U-87MG),IC50 (MCF7),IC50 ([1]; calculated from the cytotoxic activity on the 12 tumor lines studied),MTD (B6D2F1/Jico mice),IC50 (A549)
"O=C1c2ncccc2C(=O)c2c(-c3ccccc3NC(=O)C(F)(F)F)ccnc21 [CRL 8277, 4-(2-Trifluoroacetamidophenyl)pyrido[3,2-g]quinoline-5,10-dione]",12.5 nM,> 40 mg/kg,–,–,–,–,–,–
"COc1ccnc2c1-c1nc3ccccc3c3ccnc(c13)C2=O [CRL 8276, 12-Methoxybenzo[b]pyrido[4,3,2-de][1,7]phenanthroline-8-one]",2.1 nM,80 mg/kg,< 0.1 nM,< 0.1 nM,< 0.1 nM,–,–,–
"O=C1c2nccc(O)c2-c2nc3ccccc3c3ccnc1c23 [CRL 8348, meridine, reference compound]",170 nM,> 160 mg/kg,100 nM,–,–,–,–,–
cystodamine [reference compound],–,–,–,–,–,100 nM,>160 mg/kg,–
"COc1ccnc2c1C(=O)c1c(-c3ccccc3NC(=O)C(F)(F)F)ccnc1C2=O [CRL 8275, 6-Methoxy-4-(2-trifluoroacetamidophenyl)pyrido-[3,2-g]quinoline-5,10-dione]",2.3 nM,80 mg/kg,< 0.1 nM,< 0.1 nM,–,–,–,< 0.1 nM

# Source: patent US6583150B1, “Pharmaceutical composition based on polyaromatic compounds” (Laboratorie L. Lafon, priority 1999, dated 2003)
